In article PMC3104989 (PLoS ONE, 2011):

Experiments:
Hog1 [1] = biological target: T1, Hog1 (Saccharomyces cerevisiae, UniProt P32485); test: in vitro radiometric kinase assay, single dose […]; type: biochemical
T1 sequence (P32485 2-435): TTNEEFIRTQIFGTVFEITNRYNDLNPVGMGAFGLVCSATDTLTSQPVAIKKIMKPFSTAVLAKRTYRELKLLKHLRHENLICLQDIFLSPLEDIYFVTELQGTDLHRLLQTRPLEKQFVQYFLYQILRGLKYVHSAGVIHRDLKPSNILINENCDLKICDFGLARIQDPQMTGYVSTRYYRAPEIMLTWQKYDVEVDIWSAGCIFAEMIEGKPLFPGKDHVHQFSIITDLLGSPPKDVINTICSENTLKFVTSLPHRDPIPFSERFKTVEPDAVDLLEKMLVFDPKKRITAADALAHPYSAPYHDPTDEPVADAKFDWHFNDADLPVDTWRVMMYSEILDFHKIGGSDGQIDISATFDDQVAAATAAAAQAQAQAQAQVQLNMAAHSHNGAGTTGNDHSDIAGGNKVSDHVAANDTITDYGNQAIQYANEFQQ

Hog1 [2] = biological target: T1, Hog1; test: in vitro radiometric kinase assay with biotinylated Sic1 peptide; type: biochemical

Compound | remaining activity at 0.1 µM (Hog1 [1]) [%] | IC50 (Hog1 [2]) [nM]
Fc1ccc(-c2nnn(CC3CC3)c2-c2ccncc2)cc1 [1a] | 50 to 70 | 
c1ccc(Cn2nnc(-c3ccccc3)c2-c2ccncc2)cc1 [1b] | 50 to 70 | 
Clc1ccc(-c2nnn(Cc3ccccc3)c2-c2ccncc2)cc1 [1d] | 50 to 70 | 
Brc1ccc(-c2nnn(Cc3ccccc3)c2-c2ccncc2)cc1 [1e] | 50 to 70 | 

Other lines, results leading:

remaining activity at 0.1 µM (Hog1 [1]) [%] | IC50 (Hog1 [2]) [nM] | Compound
50 to 70 |  | Fc1ccc(-c2nnn(Cc3ccccc3)c2-c2ccncc2)cc1 [1c]
 | 7.4 ± 0.41 | CC(C)Nc1cc(-c2c(-c3ccccc3)nnn2Cc2ccccc2)ccn1 [4a, 4-(1-benzyl-4-phenyl-1H-1,2,3-triazol-5-yl)-N-isopropylpyridin-2-amine]
 | 6.2 ± 2.2 | CC(C)Nc1cc(-c2c(-c3ccc(F)cc3)nnn2Cc2ccccc2)ccn1 [4b, 4-(1-benzyl-4-(4-fluorophenyl)-1H-1,2,3-triazol-5-yl)-N-iso-propyl-pyridin-2-amine]
35 to 40 |  | CC1CCC(Nc2cc(-c3c(-c4ccc(F)cc4)nnn3Cc3ccccc3)ccn2)CC1 (stereo not drawn) [4d, 4-(1-benzyl-4-(4-fluorophenyl)-1H-1,2,3-triazol-5-yl)-N-(4-methyl-cyclohexyl)pyridin-2-amine]
35 to 40 |  | C[C@H](Nc1cc(-c2c(-c3ccc(F)cc3)nnn2Cc2ccccc2)ccn1)c1ccccc1 [4e, (S)-4-(1-benzyl-4-(4-fluorophenyl)-1H-1,2,3-triazol-5-yl)-N-(1-phenylethyl)pyridin-2-amine]
